In patent US8822486B2, “Spiropiperidine compounds” (Eli Lilly and Company, priority 2009, dated 2014):

What was measured:
[1] = target: T1, PPARδ (Homo sapiens, UniProt Q03181); assay: PPARδ binding assay (SPA); conditions: concentrations up to 10 μM
T1 construct: made in house; host or cells: HEK293 (cell lysates)
T1 sequence (Q03181 1-441): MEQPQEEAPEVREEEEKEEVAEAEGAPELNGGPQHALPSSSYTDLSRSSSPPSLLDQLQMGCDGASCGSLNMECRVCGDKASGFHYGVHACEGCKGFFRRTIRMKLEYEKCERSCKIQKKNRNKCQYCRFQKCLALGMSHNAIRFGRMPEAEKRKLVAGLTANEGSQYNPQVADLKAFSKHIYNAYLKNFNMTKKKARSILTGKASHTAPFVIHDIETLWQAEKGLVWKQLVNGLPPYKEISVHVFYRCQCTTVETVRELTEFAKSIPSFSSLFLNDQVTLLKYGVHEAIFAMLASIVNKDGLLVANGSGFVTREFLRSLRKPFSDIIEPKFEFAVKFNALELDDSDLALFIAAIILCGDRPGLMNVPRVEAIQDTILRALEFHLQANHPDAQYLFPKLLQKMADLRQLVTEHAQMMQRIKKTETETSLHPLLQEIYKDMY
T1 sequence (P19793 1-462 partner): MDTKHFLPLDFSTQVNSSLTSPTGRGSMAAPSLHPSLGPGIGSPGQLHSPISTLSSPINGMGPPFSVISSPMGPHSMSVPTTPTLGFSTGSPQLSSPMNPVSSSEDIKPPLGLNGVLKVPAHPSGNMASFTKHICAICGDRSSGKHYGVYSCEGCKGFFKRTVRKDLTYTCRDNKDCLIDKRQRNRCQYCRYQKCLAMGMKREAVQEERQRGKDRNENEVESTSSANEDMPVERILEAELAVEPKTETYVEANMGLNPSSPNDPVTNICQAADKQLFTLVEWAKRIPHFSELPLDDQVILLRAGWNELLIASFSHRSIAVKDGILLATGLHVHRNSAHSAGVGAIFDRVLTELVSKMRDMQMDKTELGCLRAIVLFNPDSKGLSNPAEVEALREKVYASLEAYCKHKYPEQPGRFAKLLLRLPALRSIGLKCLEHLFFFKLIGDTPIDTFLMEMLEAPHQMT
Description: Because GPR40 is known to be activated by ligands to PPARγ exemplified compounds are examined in PPARα, PPARδ, and PPARγ binding and functional assays to determine the selectivity of exemplified compounds for GPR40. Compounds exemplified herein are tested essentially as described below for PPAR binding and generally have binding values greater than 1000 nM with 10 μM concentrations of test compound and are thus considered negative for PPAR activity.
Binding affinities of compounds for the PPAR α, δ, and γ receptors are assessed using Scintillation Proximity Assay (SPA) technology. Biotinylated oligonucleotide Direct Repeat 2 (DR2) is used for binding the receptors to Yttrium silicate streptavidin-coated SPA beads. […] Non-specific binding is determined in the presence of 10,000 nM of the unlabeled PPAR α/δ dual agonist reference compound for the alpha and delta receptor assays and the PPARγ agonist reference compound for the gamma receptor assay. The binding reaction (100 μl per well in a 96 well [Costar 3632] plate) is incubated for 10 h and counted disintegration per minutes (dpm) on a Wallac Microbeta. Receptor binding affinity (IC50) for the compounds is determined by fitting an 11 point concentration-response curve with a 4-paramater logistic equation. K, is determined from the IC50 using the Cheng-Prussoff equation and Kd determined by saturation binding. […]

[2] = system: Male Balb/c mice; assay: Intraperitoneal Glucose Tolerance Test (IPGTT); assay type: in vivo, mouse; conditions: oral
Description: To examine the ability of exemplified compounds to activate GPR40 in-vivo resulting in anti-diabetic efficacy, i.e. an increase in insulin and reduction in glucose levels, a 4-day intraperitoneal glucose tolerance test (ipGTT) study is completed with each compound tested in the IPGTT.
Male Balb/c (Albino mice) mice (8-9 weeks of age) are single housed and fed with normal rodent chow diet and water ad libitum. Animals are weighed and randomized by body weight and daily body weights are recorded. Upon study initiation, animals are dosed once per day orally for three days using a formulation carrying methylcellulose and tween-80. On the night before the 4-day IPGTT study, animals are fasted overnight in clean cages. On the morning of the IPGTT (Day 4), animals are dosed orally with compound or vehicle alone 60 minutes prior to the IPGTT (glucose 2 g/kg, i.p.). Blood glucose levels are determined from tail bleeds taken at 0, 3, 7, 15, 30, and 60 min after glucose challenge. Plasma is isolated and used to estimate respective insulin levels. The blood glucose excursion profile from t=0 to t=60 min is used to integrate an area under the curve (AUC) for each treatment. Percent lowering in glucose is calculated from the AUC data of the compounds with respect to the AUC of vehicle group. The test compound is orally administered at 0.1, 0.3, 1.0, 3.0, or 10 mg/kg, and a positive control is administered at 10 mg/kg.

[3] = Example 1 at 0.1, 0.3, 1.0 and 3.0 mg/kg, positive control 10 mg/kg

## CC#C[C@@H](CC(=O)O)c1ccc(OCc2ccc(CN3CCC4(C=Cc5ccccc54)CC3)s2)cc1 [Example 1, (3S)-3-[4-[[5-(Spiro[indene-1,4′-piperidine]-1′-ylmethyl)-2-thienyl]methoxy]phenyl]hex-4-ynoic acid]
[1]
  PPARδ binding: no binding is detected
[2]; Mus musculus, once per day, 4-day study, glucose 2 g/kg i.p., AUC t=0 to 60 min, read-out: ED50 based on AUCs for glucose lowering
  ED50: 0.21 mg/kg
[2]; Example 1 0.1, 0.3, 1.0, 3.0 or 10 mg/kg, positive control 10 mg/kg
  glucose levels at the 3 minute time point: No concentration of the compound of Example 1 or the positive control significantly lowered glucose levels
[2]; Example 1 at 0.1, 0.3, 1.0 and 3.0 mg/kg
  glucose levels at the 15 minute time point: significantly lowered
[2]; [3]
  glucose levels at the 30 minute time point: significantly lowered
  glucose levels at the 60 minute time point: significantly lowered
[2]; Example 1 at 0.3, 1.0, 3.0 and 10 mg/kg, positive control 10 mg/kg
  glucose levels at the 7 minute time point: significantly lowered
[2]; at the 3.0 and 10.0 mg/kg dose
  insulin levels: significantly elevated
